Measured values from patent US6037333A, “Microbe-inhibiting compositions” (Trustees of Tufts College, priority 1998, dated 2000).

Assays:
Type in all cases: cell-based
Acanthamoeba [1] = test: 51Cr release assay of amoeba-induced cytolysis of corneal epithelium
Description: Chromium release experiments were performed to confirm the absence or occurrence of cytolysis. Visually, cell plaques or bare spots in a culture can indicate either cell loss by cytolysis, or separation of the cell from the culture surface, wherein detached cells, although initially viable, subsequently die. Cell lysis was quantified by measuring ^51 Cr release from prelabeled cells. After incubating confluent monolayer cultures of corneal epithelium in 24-well plates in cell culture medium containing Na^51 CrO4 (460 mCi/mg, 12 μCi/ml) for 18-20 hours, the cells were thoroughly rinsed and incubated with Acanthamoeba (1×10^6 parasites/ml SFB media). The four groups were (i) Acanthamoeba in media alone, (ii) Acanthamoeba in media containing α-Man, (iii) Acanthamoeba in media containing GlcNAc, and (iv) Acanthamoeba condition media. When approximately 50-70% cell loss occurred based on phase contrast microscopy, aliquots of cell-free conditioned medium from each well were analyzed. Supernatants from the four wells in each group were pooled before analysis. Percent specific release was calculated using E/T×100, where E is CPM released in test well minus CPM released in control (parasite-free) well and T is the total CPM (CPM cells+CPM supernatant in control wells). "CPM cells" was determined by incubating control wells with 0.5% Triton X-100. Conditioned media from each well was also analyzed for lactate dehydrogenase (LDH) release using an LDH assay kit (Sigma).

Acanthamoeba [2] = test: Adhesion of amoebae to corneal epithelial cell monolayer; details: saccharide present in media
Acanthamoeba [3] = test: Acanthamoeba-induced CPE assay, primary cultures of corneal epithelium; details: primary cultures as target cells
Description: In vitro cytopathic assays were performed using cell cultures of corneal epithelium as target cells. Primary cell cultures of rabbit corneal epithelium were prepared according to published protocols (M. M. Jumblatt, Invest. Opthalmol. Visual Sci. 24:1139-43, 1983) using rabbit eyes from Pel-Freez Biologicals (N. Panjwani et al., Invest. Opthalmol. Visual Sci. 31:689-695, 1990) (Rogers, AK). Generally, seventy-five eyes were processed at a time. Primary cultures have limited life span and can only be passaged 2 to 3 times without significant alteration in cell morphology.
(§1) To characterize the role of carbohydrate-mediated host-parasite interactions in the Acanthamoeba-induced cytotoxicity of host cells, in vitro cytopathic assays were performed using both primary and immortalized cultures of corneal epithelium as host cells. Immortalized cells were assayed as confluent cultures in 24-well plates, and primary cells were assayed as confluent cells in 35-mm dishes or 6-well plates.
The parasites (>95% trophozoites) were rinsed three times in a serum-free Eagle's minimum essential medium supplemented with 0.4% bovine serum albumin (SFB) and aliquots of the parasite suspension (0.2×10^5 to 1×10^6 parasites/ml SFB medium, 300 μl/well for 24-well plates and 500 μl/well for 6-well plates or 35-mm dishes) were added to wells of confluent epithelial cultures which had been rinsed and preincubated in SFB medium for 2 hours. The plates were incubated at 37° C. in a CO2 incubator and periodically examined under a phase-contrast microscope for the presence of cell-free plaques in the monolayer for up to 28-30 hours. Control wells contained host cells without the parasites. At the end of the incubation period, the cultures were stained with Giemsa (Diff-Quik, Dade Diagnostic Inc., Aguada, PR). Approximate cell density in each well was estimated by scanning the stained plates in a calibrated, computer-assisted Bio-Image Scanner (Millipore, Ann Arbor, Mich.). Cytopathic effect (CPE) was expressed as percentage of the optical density by the following formula: [formula]
Primary cultures were less susceptible to amoeba-induced CPE, requiring 1×10^6 parasites/ml to completely destroy the monolayer within 24 hours. This parasite concentration was five times higher than that required to produce the same effect when immortalized cultures were used as target host cells.

Acanthamoeba [4] = test: Acanthamoeba-induced cytopathic effect (CPE) assay, immortalized corneal epithelial cultures; details: for Inhibition of amoeba-induced CPE: no concentration stated
Description: Corneal epithelial cells with extended life span were also produced.
as §1
The plates were incubated at 37° C. in a CO2 incubator and periodically examined under a phase-contrast microscope for the presence of cell-free plaques in the monolayer for up to 28-30 hours. Control wells contained host cells without the parasites. At the end of the incubation period, the cultures were stained with Giemsa (Diff-Quik, Dade Diagnostic Inc., Aguada, PR). Approximate cell density in each well was estimated by scanning the stained plates in a calibrated, computer-assisted Bio-Image Scanner (Millipore, Ann Arbor, Mich.). Cytopathic effect (CPE) was expressed as percentage of the optical density by the following formula: [formula]
The CPE assays were performed in the SFB media containing one or more saccharides to be tested.
After staining with Giemsa, percent cell loss in each well was calculated based on the optical density in each well.

Compound: CO[C@H]1O[C@H](CO)[C@@H](O)[C@H](O)[C@@H]1O [Methyl-α-D-mannopyranoside]
- Percentage specific 51Cr release (Acanthamoeba [1]; Acanthamoeba 1×10^6 parasites/ml in media containing the saccharide, media alone about 100): ~28%
- Inhibition of amoeba-induced cytolysis (Acanthamoeba [1]; fifty millimolar, 51Cr release): more than 70%
- Adhesion of amoebae to the cell monolayer in presence of saccharide (Acanthamoeba [2]): did not adhere
- Inhibition of amoeba-induced CPE (Acanthamoeba [3]): inhibited CPE
- inhibition at 310 µM (Acanthamoeba [4]; Acanthamoeba, in Oryctolagus cuniculus, at 0.31 mM, read-out: Inhibition of cytopathic effect (% inhib. at indicated conc.)): 61%
- Time at which cell layer began to lift from the periphery (Acanthamoeba [4]; incubation with amoebae in presence of saccharide, without it nearly complete loss after about 20 hours): 20 to 28 h
- Inhibition of amoeba-induced CPE (Acanthamoeba [4]; listed as Methyl-α-mannopyranoside): potent inhibitors
- Inhibition of amoeba-induced CPE (Acanthamoeba [4]; listed as α-Man): nearly identical
- Amoeba-induced cytolysis of corneal epithelial cells (microscopy, words) (Acanthamoeba [4]; saccharide present in media): substantially inhibited
- Cell-free plaques in monolayer (Acanthamoeba [4]; saccharide present in media): not detected
